Laboratory results from patent publication US20170254801A1, “METHOD FOR IDENTIFYING SUBSTANCES WHICH PRIME A DEFENSE RESPONSE” (RHEINISCH-WESTFÄLISCHE TECHNISCHE HOCHSCHULE AACHEN (RWTH), priority 2014, published 2017).

Key:
[1] = system: Petroselinum crispum cells; experiment: Oxygen transfer rate (RAMOS) in suspension cells treated with substance and then with the elicitor Pep13; assay type: cell-based; details: 200 μM 72 hours after inoculation; for oxygen transfer rate in comparison to untreated cells and to cells only treated with Pep13 (specificity): 1 nM Pep13 96 hours after inoculation, FIG. 2
Protocol: (§1) 12.5 ml of a suspension of Petroselinum crispurn cells were inoculated in 250 ml shaking flasks containing 37.5 ml of modified Gamborg B5 medium and cultured at a temperature of 25° C. at a shaking frequency of 180 U/min and a shaking diameter of 5 cm in a RAMOS device (HiTec Zang, Herzogenrath). During the culture the oxygen partial pressure of the gas phase in the head space of the flask was measured and the oxygen transfer rate was calculated therefrom.
In yet another experiment, the cells were treated with 200 μM salicylic acid 72 hours after inoculation and with Pep13 96 hours after inoculation.
In parallel experiments, the cells were either treated with 200 μM salicylic acid, 200 μM 4-chlorsalicylic acid or with 200 μM 3-hydroxy benzoic acid 72 hours after inoculation and then in all experiments 1 nM Pep13 was added 96 hours after inoculation.

[2] = system: Petroselinum crispum cells; experiment: Oxygen transfer rate (RAMOS) in suspension cells after treatment with a defense priming substance or elicitor alone; assay type: cell-based; details: 200 μM added 72 hours after inoculation; FIG. 1b
Text: In the determination of the respiration activity with RAMOS, a measuring cycle is continuously repeated during fermentation. This measuring cycle comprises a measuring phase and a rinsing phase. During the rinsing phase, air is flushed through the measuring flask at a specific flow rate. At the beginning of the measuring phase, inlet and outlet valves of the measuring flask are closed. Respiration of the cells leads to a decrease in the oxygen partial pressure and to an increase in the carbon dioxide partial pressure in the gas headspace of the measuring flask. These partial pressures are monitored by an oxygen sensor and a differential pressure sensor. In addition, a carbon dioxide sensor may be used. Assuming linear changes in the measuring phase, a computer calculates the oxygen transfer rate and the carbon dioxide transfer rate according to the formulas provided above. […]
as §1, with “therefrom. […]” for “therefrom.”

Row | Compound | oxygen transfer rate in comparison to untreated cells and to cells only treated with Pep13 (specificity) [1] | duration of the increase in oxygen transfer rate [2] | oxygen transfer rate in comparison to the untreated cells [2] | oxygen transfer rate compared with treatment with Pep13 alone ([1]; Pep13 96 hours after inoculation, FIG. 1d)
1 | O=C(O)c1cccc(O)c1 [3-hydroxy benzoic acid] | same increase in the oxygen transfer rate as the addition of Pep13 alone | – | – | –
2 | O=C(O)c1ccc(Cl)cc1O [4-chlorsalicylic acid] | increase in the oxygen transfer rate | – | – | –
3 | O=C(O)c1ccccc1O [salicylic acid] | increase in the oxygen transfer rate | about 48 hours | increase in the oxygen transfer rate | stronger increase in the oxygen transfer rate than the treatment with Pep13 alone
